Data reported in US20090325877A1, “Combination Product of Receptor Tyrosine Kinase Inhibitor and Fatty Acid Synthase Inhibitor for Treating Cancer” (Wyeth, priority 2008, published 2009).
Read-outs that look alike come from different tables or passages of the source.

B1: matuzumab: Humanized mAb; EGFR (antibody, chains of the INN, looked up, V domains shown)
VH: QVQLVQSGAEVKKPGASVKVSCKASGYTFTSHWMHWVRQAPGQGLEWIGEFNPSNGRTNYNEKFKSKATMTVDTSTNTAYMELSSLRSEDTAVYYCASRDYDYDGRYFDYWGQGTLVTVSS
VL: DIQMTQSPSSLSASVGDRVTITCSASSSVTYMYWYQQKPGKAPKLLIYDTSNLASGVPSRFSGSGSGTDYTFTISSLQPEDIATYYCQQWSSHIFTFGQGTKVEIK

Experiments:
EGFR mRNA = EGFR mRNA by RT-PCR and qRT-PCR in A2780 cells; format: cell-based, human
Protocol: RNA was extracted from the cells using TRI-REAGENT™ (Molecular Research Center, Cincinnati, Ohio) and subjected to reverse transcription—polymerase chain reaction (“RT-PCR”) using the TITAN ONE TUBE RT-PCR KIT™ system (Hoffmann-La Roche). […] Conditions for ErbB2 and GAPDH were: 50° C., 30 minutes; 94° C., 2 minutes; 10 cycles (94° C., 30 seconds; 51° C., 30 seconds; 68° C., 45 seconds); 25 cycles (94° C., 30 seconds; 51° C., 30 seconds; 68° C., 45 seconds +5 seconds autoextension) and 68° C., 7 minutes. […] Fragments were electrophoresed and stained with ethidium bromide.
(§1) Quantitative RT-PCR (“qRT-PCR”) was performed in the ABI PRISM 7000™ Sequence Detector (Applied Biosystems, Foster City, Calif.) using human EGFR, ErbB2, and FASN TaqMan® Gene Expression Assay systems (Applied Biosystems; Assay IDs: Hs00193306_m1, Hs00170433_m1, Hs00188012_m1) according to the manufacturer's instructions. β-actin and GAPDH (VIC™ and FAM labeled pre-developed TaqMan® Assay reagents, Applied Biosystems) were used as endogenous controls. EGFR, ErbB2, and FASN mRNA expression were calculated as described previously (Grunt, ibid).

[1] = test system: SKOV3 ovarian cancer cells; assay: Formazan dye (MTT) in-vitro cell growth assay, SKOV3; format: cell-based; conditions: for in vitro growth inhibition (in words): MTT assay, single drug
Protocol: Cells were plated at 0.5−5×10^3/well in 96-well plates. After adhesion, media ±drugs alone or in combination were added. Cell numbers were estimated after 3-5 days by using a colorimetric formazan dye assay (Biomedica, Vienna, Austria). […] Statistical analysis of data from drug combination treatment experiments was performed using one-factorial ANOVA followed by Scheffe-test.
(§2) Yellow MTT (3-(4,5-Dimethylthiazol-2-yl)-2,5-diphenyltetrazolium bromide, a tetrazole) is reduced to purple formazan in the mitochondria of living cells (see Mosmann, T., J. Immunol. Methods, 65(1-2): 55-63, 1983).

FASN protein [2] = assay: FASN protein level by Western blotting in A2780 cells; format: cell-based; conditions: b102: within three days, pelitinib at doses as low as 3 μM
FASN mRNA [3] = assay: FASN mRNA expression by qRT-PCR in A2780 cells; format: cell-based, human; conditions: b102: within three days, pelitinib at doses as low as 3 μM
Source text: (§3) RNA was extracted from the cells using TRI-REAGENT™ (Molecular Research Center, Cincinnati, Ohio) and subjected to reverse transcription—polymerase chain reaction (“RT-PCR”) using the TITAN ONE TUBE RT-PCR KIT™ system (Hoffmann-La Roche). Primers were: EGFR: 5′-[…]-3′ (SEQ ID NO:1) (forward, E1S) 5′-[…]-3′ (SEQ ID NO:2) (reverse, E1A); ErbB-2: 5′-[…]-3′ (SEQ ID NO:3) (forward, E2S2), 5′-[…]-3′ (SEQ ID NO:4) (reverse, E2A2); GAPDH: 5′-[…]-3′ (SEQ ID NO:5) (forward, GAPDH3S), 5′-[…]-3′ (SEQ ID NO:6) (reverse, GAPDH3A). Conditions for reverse transcription and amplification of the EGFR coding sequence were: 50° C., 30 minutes; 94° C., 2 minutes; 10 cycles (94° C., 30 seconds; 64.9° C., 30 seconds; 68° C., 90 seconds); 30 cycles (94° C., 30 seconds; 64.9° C., 30 seconds; 68° C., 90 seconds +5 seconds autoextension) and 68° C., 7 minutes. Conditions for ErbB2 and GAPDH were: 50° C., 30 minutes; 94° C., 2 minutes; 10 cycles (94° C., 30 seconds; 51° C., 30 seconds; 68° C., 45 seconds); 25 cycles (94° C., 30 seconds; 51° C., 30 seconds; 68° C., 45 seconds +5 seconds autoextension) and 68° C., 7 minutes. DNA products had the following sizes: EGFR: 1452 bp, ErbB2: 900 bp, GAPDH: 488 bp. Fragments were electrophoresed and stained with ethidium bromide.
as §1

ErbB2 mRNA = ErbB2 mRNA by RT-PCR and qRT-PCR in A2780 cells; format: cell-based, human
Source text: as §3, §1

EGFR protein = EGFR protein and tyrosine phosphorylation by Western blot in A2780 cells; format: cell-based
ErbB2 protein = assay: Total and phosphorylated ErbB2 protein by Western blot in A2780 cells; format: cell-based
Protocol: (§4) Cells plated in culture media containing 5% fetal calf serum at a density of 2.6×10^5 (SKOV3) or 6×10^5 (A2780) in 60 mm dishes (Corning, Corning, N.Y.) were treated with FASN inhibitor C75, with small-molecule ErbB RTK inhibitors (RTKIs), with the MEK1/2 antagonist U0126 or with the PI3K inhibitor LY294002 for the indicated times and at various concentrations. In some experiments cells were stimulated for 5 or 10 min with 100 ng/ml EGF (Sigma) before lysis in RIPA buffer (Grunt et al., Biochem Biophys Res Commun 329:1253-1259, 2005). Proteins (20 μg/lane) were subjected to SDS-PAGE, blotted onto PVDF membranes and immunostained (see Grunt, ibid) using the following antibodies: 2 μg/ml goat anti-pEGFR(Tyr1173) (sc-12351), 1 μg/ml rabbit anti-ErbB2 (C-18) (sc-284), 1 μg/ml rabbit anti-pErbB2(Tyr1248) (sc-12352-R) (all from Santa Cruz Biotechnology Inc., Santa Cruz, Calif.), rabbit anti-EGFR 1:1,000 (2232), rabbit anti-AKT 1:1,000 (9272), rabbit anti-pAKT(Ser473) 1:1,000 (9271), rabbit anti-pAKT(Thr308) 1:1,000 (9275), rabbit anti-pERK1/2(Thr202/Tyr204) 1:1,000 (9101) (all from Cell Signaling Technology), rabbit anti-ERK1/2 1:3,000 (06-182, Upstate Biotechnology Inc., Lake Placid, N.Y.), 0.5 μg/ml mouse monoclonal anti-FASN (610963, BD Biosciences, San Jose, Calif.), or 0.67 μg/ml goat anti-human actin (1-19, sc-1616, Santa Cruz Biotechnology). Secondary antibodies were peroxidase-tagged donkey-anti-rabbit IgG (V795A, Promega, Madison, Wis.) or donkey-anti-goat IgG (sc-2020, Santa Cruz Biotechnology) at 1:15,000, respectively, or chicken anti-mouse IgG (sc-2954, Santa Cruz Biotechnology) at 1:10,000. Detection was performed by enhanced chemiluminescence.

[4] = test system: A2780 ovarian cancer cells; assay: Formazan dye (MTT) in-vitro cell growth assay, A2780; format: cell-based; conditions: for in vitro growth inhibition (in words): A2780, MTT assay, single drug
Protocol: Effect of FAS and ErbB inhibition on A2780 ovarian cancer cells (OCC). […] Cells were grown for three days in the presence of vehicle (0.1% DMSO) or synthetic inhibitor before cell number was estimated. Data in the charts represent means +/−SD of triplicate measurements.
Cells were plated at 0.5−5×10^3/well in 96-well plates. After adhesion, media ±drugs alone or in combination were added. Cell numbers were estimated after 3-5 days by using a colorimetric formazan dye assay (Biomedica, Vienna, Austria). Results (mean±SD, n=3) were expressed in percent of untreated (solvent) control. Statistical analysis of data from drug combination treatment experiments was performed using one-factorial ANOVA followed by Scheffe-test.
as §2

FASN mRNA [5] = assay: FASN mRNA levels in SKOV3 cells; format: cell-based, human
Source text: RNA was extracted from the cells using TRI-REAGENT™ (Molecular Research Center, Cincinnati, Ohio) and subjected to reverse transcription—polymerase chain reaction (“RT-PCR”) using the TITAN ONE TUBE RT-PCR KIT™ system (Hoffmann-La Roche). Primers were: EGFR: 5′-[…]-3′ (SEQ ID NO:1) (forward, E1S) 5′-[…]-3′ (SEQ ID NO:2) (reverse, E1A); ErbB-2: 5′-[…]-3′ (SEQ ID NO:3) (forward, E2S2), 5′-[…]-3′ (SEQ ID NO:4) (reverse, E2A2); GAPDH: 5′-[…]-3′ (SEQ ID NO:5) (forward, GAPDH3S), 5′-[…]-3′ (SEQ ID NO:6) (reverse, GAPDH3A). Conditions for reverse transcription and amplification of the EGFR coding sequence were: 50° C., 30 minutes; 94° C., 2 minutes; 10 cycles (94° C., 30 seconds; 64.9° C., 30 seconds; 68° C., 90 seconds); 30 cycles (94° C., 30 seconds; 64.9° C., 30 seconds; 68° C., 90 seconds +5 seconds autoextension) and 68° C., 7 minutes. […]
as §1

FASN protein [6] = assay: FASN protein levels by Western blotting in SKOV3 cells; format: cell-based
Protocol: as §4, with “Secondary antibodies were peroxidase-tagged donkey-anti-rabbit IgG (V795A, Promega, Madison, Wis.) or donkey-anti-goat IgG (sc-2020, Santa Cruz Biotechnology) at 1:15,000, respectively, or chicken anti-mouse IgG (sc-2954, Santa Cruz Biotechnology) at 1:10,000. Detection was performed by enhanced chemiluminescence.” left out

Molecule | EGFR mRNA, effect in words (EGFR mRNA) | in vitro growth inhibition (in words) [1] | FASN protein expression, effect in words (FASN protein [2]) | FASN mRNA expression, effect in words (FASN mRNA [3]) | ErbB2 mRNA, effect in words (ErbB2 mRNA) | EGFR total protein, effect in words (EGFR protein) | phosphorylated ErbB2 (pErbB2), effect in words (ErbB2 protein) | total ErbB2 protein, effect in words (ErbB2 protein) | in vitro growth inhibition (in words) [4] | also measured
CCOc1cc2ncc(C#N)c(Nc3ccc(F)c(Cl)c3)c2cc1NC(=O)C=CCN(C)C [EKB-569, 4-Dimethylamino-but-2-enoic acid [4-(3-chloro-4-fluoro-phenylamino)-3-cyano-7-ethoxy-quinolin-6-yl]-amide] | weak dose-dependent repression | growth inhibitory activity | represses | represses | only weakly depresses | abolishes | abolishes | abolishes | growth inhibitory activity | EGFR mRNA, effect in words (EGFR mRNA; listed as pelitinib): dose-dependent down-regulation; FASN protein expression, effect in words (FASN protein [2]; listed as pelitinib): abrogated; FASN mRNA expression, effect in words (FASN mRNA [3]; listed as pelitinib): abrogated; ErbB2 mRNA, effect in words (ErbB2 mRNA; listed as pelitinib): do not appear to be affected; EGFR tyrosine phosphorylation (activity), effect in words (EGFR protein): dose-dependent reduction; EGFR total protein, effect in words (EGFR protein; listed as pelitinib): dose-dependent down-regulation; EGFR tyrosine phosphorylation (activity), effect in words (EGFR protein; listed as pelitinib): completely abrogates; phosphorylated ErbB2 (pErbB2), effect in words (ErbB2 protein; listed as pelitinib): abrogated; total ErbB2 protein, effect in words (ErbB2 protein; listed as pelitinib): abrogated; IC50 ([4]; Homo sapiens, 72 h, A2780 OCC, each individual inhibitor, 50% reduction of cell growth, three days, n = 3-5, read-out: IC50 (μM) Mean +/− SD): 5.14 µM
N#CC(=C(/N)Sc1ccccc1N)/C(C#N)=C(\N)Sc1ccccc1N [U0126] | – | – | – | – | – | – | – | – | – | FASN mRNA levels, effect in words (FASN mRNA [5]): does not affect; FASN protein levels, effect in words (FASN protein [6]): does not affect
C=CC(=O)Nc1cc2c(Nc3ccc(F)c(Cl)c3)ncnc2cc1OCCCN1CCOCC1 [canertinib] | does not diminish | growth inhibitory activity | effect was also seen | effect was also seen | fails to down-regulate | does not diminish | strongly diminishes | slightly attenuates | growth inhibitory activity | –
C#Cc1cccc(Nc2ncnc3cc(OCCOC)c(OCCOC)cc23)c1 [erlotinib] | – | does not significantly inhibit growth | effect was also seen | effect was also seen | – | – | – | – | does not significantly inhibit growth | –
B1 | – | – | – | – | – | – | – | – | – | growth inhibition ([1]; antibody alone at 20 μg/ml): ~10%
